# “And” between values parts separate entries of the source, which are not always exact repeats. Identical values can stand only once. Marks after values point to notes of the source that are not given here.
# Key:
# [1] = studies supporting FDA approval for foods, drugs and cosmetics; cited from earlier work
# [2] = Blue #1 measured by LC/MS in blood/plasma after enteral administration (intestinal permeability test); assay type: in vivo, human; set-up: Blue #1 in blood sample, 2 H / Blue #1 in blood sample, 8 H: unit not given here; settings: for Blue #1 in blood sample, 2 H: 2 H after dose; for Blue #1 in blood sample, 8 H: 8 H after dose
# Protocol: High dose: 0.5 mg/kg—e.g, 35 mg in a 70 kg adult, administered as 35 ml of diluted food coloring solution (16 mg/mL diluted 1:16) was used. Five blood samples were drawn per subject (5 ml/draw): 0 hour-prior to dose, 1 hour, 2 hours, 4 hours, 8 hours. Four subjects enrolled. […]
# Test subjects with clinically determined sepsis were given enteral Blue #1 at a designated time prior to scheduled blood draw. […] Sepsis was defined by the Surviving Sepsis Campaign [Crit Care Med. 2013; 41(2):580] (presence, probable or documented, of infection together with systemic manifestations such as fever, tachycardia, leukocytosis, hypotension, organ dysfunction, or decreased tissue perfusion). […] The medium dose was: 0.05 mg/kg—e.g. 3.5 mg in a 70 kg adult, administered as 35 mL of diluted food coloring solution (0.1 mg/mL), The low dose was: 0.005 mg/kg—e.g. 0.35 mg in a 70 kg, administered as 35 ml of diluted food coloring solution (0.01 mg/ml). Five blood draws per subject (5 ml/draw): 0 hour—prior to dose, 1 hour, 2 hours, 4 hours, and 8 hours, through clinically indicated, previously placed IV catheters. 14 subjects were used in this study.
# Plasma concentration of Blue-1 is shown in relation to time in two patients (10-26-16) and (11-14-16) diagnosed with sepsis. Plasma preparation was done as shown in Example 5C below. Bzi-Arg_pNA was used as a STD. The data obtained is shown in Tables 2 and 3 below and in FIG. 3. The standard graph is FIG. 4.
# Subjects were asked to drink a blue food coloring solution, (GATORADE for example) at 0.5 mg/kg (35 ml for a 70 kg human subject). Then a blood sample was drawn (e.g. 5 ml) at five different time periods for each subject: immediately before the drink (time zero), 1 hour, 2 hour, 4 hour and 8 hours after the drink. Subjects in Group 2 also had some of their abdominal fluid from the paracentesis saved to analyze for the presence of the dye, Plasma was prepared according to the method in the following example.
# 1) one volume of plasma was mixed with 3 volumes of (1:3→IPA:CAN+0.1% TFA);
# 2) after spin-down, 1800 μl of supernatant was evaporated (for example, by a Speed-Vac)
# 4) 10 μl of the re-suspended residue was injected onto a mass spectrophotometer for each analysis which corresponds to 25 μl of “pure plasma”. Quantitative analysis of the peak corresponding to the mass of Blue #1 was performed to see how much of the dye had been absorbed. Bzl-Arg_pNA is an example of a standard that worked with this assay.
# [3] = Solubility in resuspension solvents (NMP, water); assay type: physicochemical; settings: NMP and water (50% NMP in water used for resuspension)
# fruit flies = settings: fruit fly bodies viewed under a microscope after being given the dye; cited from earlier work
# [4] = rats; Brown 1980; cited from earlier work
# [5] = Non-septic 1, ICU, no vasopressor, MELD 40, Eating
# [6] = Non-septic 2, ICU, no vasopressor, MELD 33, Eating
# [7] = Non-septic 3, ICU, no vasopressor, MELD 17, Eating
# [8] = Non-septic 4, ICU/Pressor, NE 0.4, MELD 36, Eating
# [9] = Normal 1, Normal, no vasopressor, MELD 6, NPO
# [10] = Normal 2, Normal, no vasopressor, MELD 6, NPO
# [11] = Normal 3, Normal, no vasopressor, MELD 6, NPO
# [12] = Normal 4, Normal, no vasopressor, MELD 6, NPO
# [13] = Septic 1, ICU/Pressor, NE 0.12, MELD 34, NPO × meds
# [14] = Septic 3 (first line so labelled, r15), ICU/Pressor, NE 0.12, MELD 39, NPO × meds
# [15] = Septic 3 (second line so labelled, r17), ICU/Pressor, Vaso 4, NE 0.09, PhE 25, MELD 35, NPO × meds
# [16] = Septic 4, ICU/Pressor, NE 0.25, MELD 40, NPO × meds
# [17] = Septic 5, ICU/Pressor, NE 0.02, MELD 23, Eating
# [18] = Septic 6, ICU/Pressor, Vaso 2, MELD 43, NPO × meds
# [19] = sepsis patient of Table 2, 1 hr after ingestion
# [20] = sepsis patient of Table 2, 2 hr after ingestion
# [21] = sepsis patient of Table 2, 4 hr after ingestion
# [22] = sepsis patient of Table 2, 8 hr after ingestion
# [23] = sepsis patient of Table 3, 1 hr after ingestion
# [24] = sepsis patient of Table 3, 2 hr after ingestion
# [25] = sepsis patient of Table 3, 4 hr after ingestion
# [26] = sepsis patient of Table 3, 8 hr after ingestion
structure (smiles),measurement,setting,value
"CCN(Cc1cccc(S(=O)(=O)[O-])c1)c1ccc(C(=C2C=CC(=[N+](CC)Cc3cccc(S(=O)(=O)[O-])c3)C=C2)c2ccccc2S(=O)(=O)[O-])cc1.[Na+].[Na+] [Blue #1, disodium;2-[[4-[ethyl-[(3-sulfonatophenyl)methyl]amino]phenyl]-[4-[ethyl-[(3-sulfonatophenyl)methyl]azaniumlidene]cyclohexa-2,5-dien-1-ylidene]methyl]benzenesulfonate]",Acceptable daily intake,[1],12 mg/kg body weight/day
same,"Blue #1 in blood sample, 2 H",[2]; [5],0.5
same,"Blue #1 in blood sample, 8 H",[2]; [5],0.15
same,"Blue #1 in blood sample, 2 H",[2]; [6],<0.05
same,"Blue #1 in blood sample, 8 H",[2]; [6],<0.05
same,"Blue #1 in blood sample, 2 H",[2]; [7],<0.05
same,"Blue #1 in blood sample, 8 H",[2]; [7],<0.05
same,"Blue #1 in blood sample, 2 H",[2]; [8],<0.05
same,"Blue #1 in blood sample, 8 H",[2]; [8],<0.05
same,"Blue #1 in blood sample, 2 H",[2]; [9],<0.05
same,"Blue #1 in blood sample, 8 H",[2]; [9],<0.05
same,"Blue #1 in blood sample, 2 H",[2]; [10],<0.05
same,"Blue #1 in blood sample, 8 H",[2]; [10],<0.05
same,"Blue #1 in blood sample, 2 H",[2]; [11],<0.05
same,"Blue #1 in blood sample, 8 H",[2]; [11],<0.05
same,"Blue #1 in blood sample, 2 H",[2]; [12],<0.05
same,"Blue #1 in blood sample, 8 H",[2]; [12],<0.05
same,"Blue #1 in blood sample, 2 H",[2]; [13],0.5
same,"Blue #1 in blood sample, 8 H",[2]; [13],0.3
same,"Blue #1 in blood sample, 2 H",[2]; [14],0.7
same,"Blue #1 in blood sample, 8 H",[2]; [14],0.5
same,"Blue #1 in blood sample, 2 H",[2]; [15],<0.05
same,"Blue #1 in blood sample, 8 H",[2]; [15],<0.05
same,"Blue #1 in blood sample, 2 H",[2]; [16],2.5
same,"Blue #1 in blood sample, 8 H",[2]; [16],4.6**
same,"Blue #1 in blood sample, 2 H",[2]; [17],0.4
same,"Blue #1 in blood sample, 8 H",[2]; [17],0.05
same,"Blue #1 in blood sample, 2 H",[2]; [18],1
same,"Blue #1 in blood sample, 8 H",[2]; [18],1.5
same,"Detectability of Blue #1 by LC/MS (FIG. 2, upper graph)",[2]; non-septic patient,not detectable
same,Absorption into blood in normal subjects,"[2]; normal subjects (four enrolled), high dose 0.5 mg/kg oral, up to 8 hours later",wasn't any detectable absorption
same,"Plasma concentration of Blue-1, Average",[2]; [19],1.41 nM (nM)
same,"Plasma concentration of Blue-1, replicates A, B, C",[2]; [19],1.81 fMoles/μl (nM) and 1.13 fMoles/μl (nM) and 1.29 fMoles/μl (nM)
same,"Plasma concentration of Blue-1, Average",[2]; [20],2.59 nM (nM)
same,"Plasma concentration of Blue-1, replicates A, B, C",[2]; [20],2.17 fMoles/μl (nM) and 2.89 fMoles/μl (nM) and 2.72 fMoles/μl (nM)
same,"Plasma concentration of Blue-1, Average",[2]; [21],2.03 nM (nM)
same,"Plasma concentration of Blue-1, replicates A, B, C",[2]; [21],2.30 fMoles/μl (nM) and 1.75 fMoles/μl (nM) and 2.05 fMoles/μl (nM)
same,"Plasma concentration of Blue-1, Average",[2]; [22],2.18 nM (nM)
same,"Plasma concentration of Blue-1, replicates A, B, C",[2]; [22],2.44 fMoles/μl (nM) and 2.04 fMoles/μl (nM) and 2.05 fMoles/μl (nM)
same,"Plasma concentration of Blue-1, Average",[2]; [23],1.17 nM (nM)
same,"Plasma concentration of Blue-1, replicates A, B, C",[2]; [23],1.09 fMoles/μl (nM) (2×) and 1.33 fMoles/μl (nM)
same,"Plasma concentration of Blue-1, Average",[2]; [24],2.29 nM (nM)
same,"Plasma concentration of Blue-1, replicates A, B, C",[2]; [24],2.40 fMoles/μl (nM) and 2.28 fMoles/μl (nM) and 2.18 fMoles/μl (nM)
same,"Plasma concentration of Blue-1, Average",[2]; [25],2.67 nM (nM)
same,"Plasma concentration of Blue-1, replicates A, B, C",[2]; [25],2.53 fMoles/μl (nM) and 2.29 fMoles/μl (nM) and 3.19 fMoles/μl (nM)
same,"Plasma concentration of Blue-1, Average",[2]; [26],3.37 nM (nM)
same,"Plasma concentration of Blue-1, replicates A, B, C",[2]; [26],3.50 fMoles/μl (nM) and 3.04 fMoles/μl (nM) and 358 fMoles/μl (nM)
same,"Detectability of Blue #1 by LC/MS (FIG. 2, lower graph)",[2]; septic patient,detectable
same,Solubility,[3],soluble in both
same,Absorption by fruit flies,fruit flies,not to be absorbed
same,Share of the dye absorbed into the blood from the intestine,[4],more than 0.02%

# From patent US12044683B2, “Methods and compositions concerning intestinal permeability” (THE REGENTS OF THE UNIVERSITY OF CALIFORNIA, priority 2018, dated 2024)
